Read-outs that look alike come from different tables or passages of the source.
How the values were obtained:
RS4;11 cells = experiment: Cell viability assay, MTS, 48 h, RS4;11; format: cell-based; conditions: 48 hours, read-out: IC50 (48 hours) RS4;11
Procedure: (§1) Acute lymphoblastic leukemia cells (MOLT-4 and RS4; 11) or small cell lung cancer (NCI-H146 or simply H146) were incubated with increasing concentrations of Bcl-xL degraders for 48 h. Cell viability was measured by tetrazolium-based MTS assay.

MOLT-4 cells = experiment: Cell viability assay, MTS, 48 h, MOLT-4; format: cell-based; conditions: 48 hours, read-out: IC50 (48 hours) MOLT-4
Procedure: as §1

Row | Compound | IC50 (RS4;11 cells; Homo sapiens, RS4-11, 48 h) | IC50 (MOLT-4 cells; Homo sapiens, MOLT-4, 48 h) | IC50 (RS4;11 cells) | IC50 (MOLT-4 cells)
1 | Cc1ncsc1-c1ccc([C@H](C)NC(=O)[C@@H]2C[C@@H](O)CN2C(=O)[C@@H](NC(=O)CCCCCC(=O)N2CCCN(CC3(C)CCC(c4ccc(Cl)cc4)=C(CN4CCN(c5ccc(C(=O)NS(=O)(=O)c6ccc(N[C@H](CCN7CCOCC7)CSc7ccccc7)c(S(=O)(=O)C(F)(F)F)c6)cc5)CC4)C3)CC2)C(C)(C)C)cc1 (stereo partly drawn) [degrader #21, (2S,4R)-1-((2S)-2-(7-(4-((4′-chloro-4-methyl-6-((4-(4-(((4-(((R)-4-morpholino-1-(phenylthio)butan-2-yl)amino)-3-((trifluoromethyl)sulfonyl)phenyl)sulfonyl)carbamoyl)phenyl)piperazin-1-yl)methyl)-2,3,4,5-tetrahydro-[1,1′-biphenyl]-4-yl)methyl)-1,4-diazepan-1-yl)-7-oxoheptanamido)-3,3-dimethylbutanoyl)-4-hydroxy-N—((S)-1-(4-(4-methylthiazol-5-yl)phenyl)ethyl)pyrrolidine-2-carboxamide] | < 50 nM | 50 to 150 nM |  | 
2 | Cc1ncsc1-c1ccc([C@H](C)NC(=O)[C@@H]2C[C@@H](O)CN2C(=O)[C@@H](NC(=O)CCCCCCC(=O)N2CCN(C[C@@]3(C)CCC(c4ccc(Cl)cc4)=C(CN4CCN(c5ccc(C(=O)NS(=O)(=O)c6ccc(N[C@H](CCN7CCOCC7)CSc7ccccc7)c(S(=O)(=O)C(F)(F)F)c6)cc5)CC4)C3)CC2)C(C)(C)C)cc1 [degrader #43, (2S,4R)-1-((S)-2-(8-(4-(((S)-4′-chloro-4-methyl-6-((4-(4-(((4-(((R)-4-morpholino-1-(phenylthio)butan-2-yl)amino)-3-((trifluoromethyl)sulfonyl)phenyl)sulfonyl)carbamoyl)phenyl)piperazin-1-yl)methyl)-2,3,4,5-tetrahydro-[1,1′-biphenyl]-4-yl)methyl)piperazin-1-yl)-8-oxooctanamido)-3,3-dimethylbutanoyl)-4-hydroxy-N—((S)-1-(4-(4-methylthiazol-5-yl)phenyl)ethyl)pyrrolidine-2-carboxamide] | 150 to 500 nM | 50 to 150 nM |  | 
3 | Cc1ncsc1-c1ccc([C@H](C)NC(=O)[C@@H]2C[C@@H](O)CN2C(=O)[C@@H](NC(=O)CCCCCN2CCN(CC3(C)CCC(c4ccc(Cl)cc4)=C(CN4CCN(c5ccc(C(=O)NS(=O)(=O)c6ccc(N[C@H](CCN7CCOCC7)CSc7ccccc7)c(S(=O)(=O)C(F)(F)F)c6)cc5)CC4)C3)CC2)C(C)(C)C)cc1 (stereo partly drawn) [Compound 55, N^1-((4′-chloro-4-methyl-6-((4-(4-(((4-(((R)-4-morpholino-1-(phenylthio)butan-2-yl)amino)-3-((trifluoromethyl)sulfonyl)phenyl)sulfonyl)carbamoyl)phenyl)piperazin-1-yl)methyl)-2,3,4,5-tetrahydro-[1,1′-biphenyl]-4-yl)methyl)-N^2—((S)-1-((2S,4R)-4-hydroxy-2-(((S)-1-(4-(4-methylthiazol-5-yl)phenyl)ethyl)carbamoyl)pyrrolidin-1-yl)-3,3-dimethyl-1-oxobutan-2-yl)dodecanediamide] | < 50 nM | < 50 nM |  | 
4 | Cc1ncsc1-c1ccc([C@H](C)NC(=O)[C@@H]2C[C@@H](O)CN2C(=O)[C@@H](NC(=O)CCCCCCC(=O)N2C[C@@H]3C[C@H]2CN3CC2(C)CCC(c3ccc(Cl)cc3)=C(CN3CCN(c4ccc(C(=O)NS(=O)(=O)c5ccc(N[C@H](CCN6CCOCC6)CSc6ccccc6)c(S(=O)(=O)C(F)(F)F)c5)cc4)CC3)C2)C(C)(C)C)cc1 (some centres unmarked) [degrader #45] | < 50 nM | 50 to 150 nM |  | 
5 | (2S,4R)-1-((S)-2-(12-(4-(4-chlorophenyl)-5-((4-(4-(((4-(((R)-4-morpholino-1-(phenylthio)butan-2-yl)amino)-3-((trifluoromethyl)sulfonyl)phenyl)sulfonyl)carbamoyl)phenyl)piperazin-1-yl)methyl)-3,6-dihydropyridin-1(2H)-yl)-12-oxododecanamido)-3,3-dimethylbutanoyl)-4-hydroxy-N—((S)-1-(4-(4-methylthiazol-5-yl)phenyl)ethyl)pyrrolidine-2-carboxamide [Example 7] |  |  | 50 to 150 nM | 50 to 150 nM
6 | Cc1ncsc1-c1ccc([C@H](C)NC(=O)[C@@H]2C[C@@H](O)CN2C(=O)[C@@H](NC(=O)CCCCCCC(=O)N2CC3(CCN(CC4(C)CCC(c5ccc(Cl)cc5)=C(CN5CCN(c6ccc(C(=O)NS(=O)(=O)c7ccc(N[C@H](CCN8CCOCC8)CSc8ccccc8)c(S(=O)(=O)C(F)(F)F)c7)cc6)CC5)C4)CC3)C2)C(C)(C)C)cc1 (stereo partly drawn) [degrader #32, (2S,4R)-1-((2S)-2-(8-(7-((4′-chloro-4-methyl-6-((4-(4-(((4-(((R)-4-morpholino-1-(phenylthio)butan-2-yl)amino)-3-((trifluoromethyl)sulfonyl)phenyl)sulfonyl)carbamoyl)phenyl)piperazin-1-yl)methyl)-2,3,4,5-tetrahydro-[1,1′-biphenyl]-4-yl)methyl)-2,7-diazaspiro[3.5]nonan-2-yl)-8-oxooctanamido)-3,3-dimethylbutanoyl)-4-hydroxy-N—((S)-1-(4-(4-methylthiazol-5-yl)phenyl)ethyl)pyrrolidine-2-carboxamide] | < 50 nM | 50 to 150 nM |  | 
7 | Cc1ncsc1-c1ccc([C@H](C)NC(=O)[C@@H]2C[C@@H](O)CN2C(=O)[C@@H](NC(=O)CCCCCCCC(=O)N2CCN(C(=O)C3(C)CCC(c4ccc(Cl)cc4)=C(CN4CCN(c5ccc(C(=O)NS(=O)(=O)c6ccc(N[C@H](CCN7CCOCC7)CSc7ccccc7)c(S(=O)(=O)C(F)(F)F)c6)cc5)CC4)C3)CC2)C(C)(C)C)cc1 (stereo partly drawn) [compound 66, (2S,4R)-1-((2S)-2-(9-(4-(4′-chloro-4-methyl-6-((4-(4-(((4-(((R)-4-morpholino-1-(phenylthio)butan-2-yl)amino)-3-((trifluoromethyl)sulfonyl)phenyl)sulfonyl)carbamoyl)phenyl)piperazin-1-yl)methyl)-2,3,4,5-tetrahydro-[1,1′-biphenyl]-4-carbonyl)piperazin-1-yl)-9-oxononanamido)-3,3-dimethylbutanoyl)-4-hydroxy-N—((S)-1-(4-(4-methylthiazol-5-yl)phenyl)ethyl)pyrrolidine-2-carboxamide] | < 50 nM | < 50 nM |  | 
8 | Cc1ncsc1-c1ccc([C@H](C)NC(=O)[C@@H]2C[C@@H](O)CN2C(=O)[C@@H](NC(=O)CC2CCC(CC(=O)N3CCN(CC4(C)CCC(c5ccc(Cl)cc5)=C(CN5CCN(c6ccc(C(=O)NS(=O)(=O)c7ccc(N[C@H](CCN8CCOCC8)CSc8ccccc8)c(S(=O)(=O)C(F)(F)F)c7)cc6)CC5)C4)CC3)CC2)C(C)(C)C)cc1 (some centres unmarked) [degrader #40] | < 50 nM | < 50 nM |  | 
9 | Cc1ncsc1-c1ccc([C@H](C)NC(=O)[C@@H]2C[C@@H](O)CN2C(=O)[C@@H](NC(=O)CCCCCCCC(=O)NCCN(C)CC2(C)CCC(c3ccc(Cl)cc3)=C(CN3CCN(c4ccc(C(=O)NS(=O)(=O)c5ccc(N[C@H](CCN6CCOCC6)CSc6ccccc6)c(S(=O)(=O)C(F)(F)F)c5)cc4)CC3)C2)C(C)(C)C)cc1 (some centres unmarked) [compound 62] | < 50 nM | 150 to 500 nM |  | 
10 | (2S,4R)-1-((S)-2-(11-(4-(4-chlorophenyl)-5-((4-(4-(((4-(((R)-4-morpholino-1-(phenylthio)butan-2-yl)amino)-3-((trifluoromethyl)sulfonyl)phenyl)sulfonyl)carbamoyl)phenyl)piperazin-1-yl)methyl)-3,6-dihydropyridin-1(2H)-yl)-11-oxoundecanamido)-3,3-dimethylbutanoyl)-4-hydroxy-N—((S)-1-(4-(4-methylthiazol-5-yl)phenyl)ethyl)pyrrolidine-2-carboxamide [Example 6] |  |  | < 50 nM | 50 to 150 nM

From US20220169628A1 (University of Florida Research Foundation, Incorporated, priority 2019, published 2022)
